# Square brackets hold non-standard residues; d marks the D form. Peptide text beside a SMILES is read from it. hArg = N=C(N)NCCCC[C@H](N)C(=O)O; Aib = CC(C)(N)C(=O)O
# Test: Circular dichroism spectroscopy (helical content)
# Assay type: physicochemical
# Details: for [0]222obs × 10^−3, Phos. / [0]222obs × 10^−3, Phos + TFE: 20 μM peptide; for [0]222obs × 10^−3, Phos.: 50 mM phosphate buffer pH 7.4; for [0]222obs × 10^−3, Phos + TFE / helical residues (%), Phos + TFE: 50 mM phosphate buffer with trifluoroethanol (20%); for helical residues (%), Phos + TFE / helical residues (%), Phos.: from elipticity at 222 nM; for helical residues (%), Phos.: 50 mM phosphate buffer
# Description: Circular Dichroism. Circular Dichroism spectra were recorded on a Jasco model 710 spectropolarimeter; peptides were analyzed at a concentration of20 μM in 50 mM sodium phosphate buffer pH 7.4, or the same buffer containing 2,2,2-trifluoroethanol at 20% (v/v). Spectroscopic scans were preformed at 20° C. and at wavelengths between […], with data recored at each 1 nM interval. The spectral bandwidth was 1.5 nM and 8 scans were accumulated and averaged for each sample. At each wavelength, the mean residue elipticity [θ×100/l×C×n); where θ is the raw elipticity value (in dimensions of millidegree), l is the sample path length, C=is the molar peptide concentration, and n is the number of residues in the peptide (Bowen, W. P., and Jerman, J. C., Trends in Pharmacol. Sci. 16: 413-417 (1995)). The helical content of each peptide was estimated by dividing [θ] observed at 222 nM for that peptide by −28,100, which is the reported [θ]222obs for a model helical decapeptide (Bowen, W. P., and Jerman, J. C., Trends in Pharmacol. Sci. 16: 413-417 (1995)).
# Circular dichroism (CD) spectroscopy was used to analyze the potential effects that the Aib substitutions had on peptide secondary structure when the peptides were free in solution. Samples were analyzed in both aqueous phosphate buffer and in phosphate buffer containing 2,2,2-trifloroethanol, an organic solvent which promotes helical structure in oligopeptides, including PTH peptide fragments (Pellegrini, M., et al., J. Biol. Chem. 273:10420-10427 (1998); Gronwald, W., et al., Biol. Chem. Hoppe Seyler 377:175-186 (1996); Barden, J. A., and Kemp, B. E., Biochemistry 32:7126-7132 (1993)). In phosphate buffer, the helical content of each peptide, estimated from the elipticity observed at 222 nM, was small (≦16%); however, [Aib^1,3,M]PTH(1-14) contained nearly twice as much helix as did [M]PTH(1-14) (16% and 8.1% respectively), as did [Aib^1,3,M]PTH(1-1l), as compared to […] (13% and 7.5% respectively, Table 4). […] The higher helical contents of these two peptides were evident not only from the negative elipticities at […] and 222 nM, but also from the positive elipticities at 192 nM (FIG. 6).
Compound,"[0]222obs × 10^−3, Phos.","[0]222obs × 10^−3, Phos + TFE","helical residues (%), Phos + TFE","helical residues (%), Phos + TFE (M]PTH(1-10)) [%]","helical residues (%), Phos. [%]"
"CC[C@H](C)[C@H](NC(=O)[C@H](CCC(=O)O)NC(=O)C(C)(C)NC(=O)[C@@H](NC(=O)C(C)(C)N)C(C)C)C(=O)N[C@@H](CCC(N)=O)C(=O)N[C@@H](CC(C)C)C(=O)N[C@@H](CCSC)C(=O)N[C@@H](Cc1c[nH]cn1)C(=O)N[C@@H](CCC(N)=O)C(N)=O [[Aib^1,3,M]PTH(1-10), [Aib^1,3,Gln^10]PTH(1-10)] (H-[Aib]V[Aib]EIQLMHQ-NH2)",−3.2,−13.1,approximately 47%,47,11
"CC[C@H](C)[C@H](NC(=O)[C@H](CCC(=O)O)NC(=O)C(C)(C)NC(=O)[C@@H](NC(=O)C(C)(C)N)C(C)C)C(=O)N[C@@H](CCC(N)=O)C(=O)N[C@@H](CC(C)C)C(=O)N[C@@H](CCSC)C(=O)N[C@@H](Cc1c[nH]cn1)C(=O)N[C@@H](CCC(N)=O)C(=O)N[C@@H](CCCCNC(=N)N)C(N)=O [[Aib^1,3,M]PTH(1-11), AibValAibGluIleGlnLeuMetHisGlnHar] (H-[Aib]V[Aib]EIQLMHQ[hArg]-NH2)",−3.7,−16.1,57%,,13
"CC[C@H](C)[C@H](NC(=O)[C@H](CCC(=O)O)NC(=O)C(C)(C)NC(=O)[C@@H](NC(=O)C(C)(C)N)C(C)C)C(=O)N[C@@H](CCC(N)=O)C(=O)N[C@@H](CC(C)C)C(=O)N[C@@H](CCSC)C(=O)N[C@@H](Cc1c[nH]cn1)C(=O)N[C@@H](CCC(N)=O)C(=O)N[C@@H](CCCCNC(=N)N)C(=O)N[C@@H](C)C(=O)N[C@@H](CCCCN)C(=O)N[C@@H](Cc1c[nH]c2ccccc12)C(N)=O [[Aib^1,3,M]PTH(1-14), AibValAibGluIleGlnLeuMetHisGlnHarAlaLysTrp] (H-[Aib]V[Aib]EIQLMHQ[hArg]AKW-NH2)",−4.6,−15.7,56%,,16
"CC[C@H](C)[C@H](NC(=O)[C@H](CCC(=O)O)NC(=O)[C@H](C)NC(=O)[C@@H](NC(=O)[C@H](C)N)C(C)C)C(=O)N[C@@H](CCC(N)=O)C(=O)N[C@@H](CC(C)C)C(=O)N[C@@H](CCSC)C(=O)N[C@@H](Cc1c[nH]cn1)C(=O)N[C@@H](CCC(N)=O)C(=O)N[C@@H](CCCCNC(=N)N)C(=O)N[C@@H](C)C(=O)N[C@@H](CCCCN)C(=O)N[C@@H](Cc1c[nH]c2ccccc12)C(N)=O [[M]PTH(1-14), [Ala^3,12,Gln^10,Har^11,Trp^14]PTH(1-14)amide, reference compound] (H-AVAEIQLMHQ[hArg]AKW-NH2)",−2.3,−11.9,42%,,8.1
"H-AVSEIQLMHNLGKH-NH2 [PTH(1-14), reference compound]",−2.6,−10.6,38%,,9.1
